Measurements as given in patent US7179937B2, “Cyclopentenone derivatives for cancer therapy” (Dabur Research Foundation, priority 2001, dated 2007).

Columns and labels:
Caspase-3 = Caspase-3 induction in oral cancer cells (KB), colorimetric DEVD-pNA; assay type: cell-based, human; settings: 5 ug/ml
Method: Human squamous cell carcinoma (KB) were plated in a 25 cm^2 flask. When cultures achieved confluence, the cyclopentenone derivative of structure 20 was added to cells. The final concentration of derivative of the structure 20 in the flask was 5 ug/ml. The untreated wells served as controls. The cells were incubated with the drug for 2 different time points of 6 and 16 hours at 37° C. The cells were collected by centrifugation at 2000 r.p.m. for 10 minutes. The supernatant was gently removed and discarded while Lysis Buffer was added to the cell pellet (25 ul of lysis buffer per 1×10^4 cell). The cell lysate was incubated on ice for 10 minutes and centrifuged at 10,000-×g for 1 minute. The supernatant was transferred to a new tube and kept on ice. 50 ul of the cell lysate was added in a 96 well plate. To this was added 2× Reaction Buffer. Prior to using reaction buffer 10 ul of fresh DTT stock per 1 ml of 2× Reaction Buffer was added. To each well 5 ul of Caspase-3 colorimetric substrate (DEVD-pNA) was added. The plate was incubated for 1–2 hours at 37° C. and read at 405 nm.
The level of caspase enzymatic activity in the cell lysate is directly proportional to the absorbance at 405 nm.

VEGF = VEGF levels in endothelial cells (ECV304), ELISA; assay type: cell-based, human; settings: 5 ug/ml, 4 hours
Method: Human endothelial cells (ECV304) were plated at the density of 8–10×10^5 cells per 2 ml in a six well plate. After an overnight incubation of cells at 37° C., cyclopentenone derivatives at a concentration of 5 ug/ml was added to the wells. The untreated wells served as controls. The plates were incubated for 4 hours at 37° C. The medium was collected from all the wells (control and treated) and spun down at 2000 r.p.m to remove the cellular material. The supernatant was collected and used for ELISA (quantikine human VEGF, R&D Systems). The assay employs the quantitative sandwich enzyme immuonoassay technique. A monoclonal antibody specific for VEGF has been pre-coated onto a microplate. Standards and samples were pipetted into the wells and VEGF present was bound by the immobilized antibody. After washing away the unbound substances, an enzyme-linked polyclonal antibody specific for VEGF was added to the wells. Following a wash to remove any unbound antibody-enzyme reagent, a substrate solution was added to the wells and color developed in proportion to the amount of VEGF bound in the initial step. The optical density of each well was determined within 30 minutes using a microplate reader set to 450 nm and reference wavelength at 540 nm. The VEGF levels were inhibited by the addition of cyclopentenone derivatives in vitro.

Tubulin = assay: in vitro tubulin polymerization (assembly) assay, absorbance at 340 nm; assay type: biochemical; settings: tubulin 1 mg/ml, 37° C., pH 6.9; read-out: IC50 values for inhibition of Tubulin Polymerization
Method: The cyclopentenone derivatives were checked for their effects on tubulin polymerization in in vitro. Briefly, the tubulin assembly reaction was performed at 37° C. in buffer containing 80 mM PIPES, 1 mM EGTA, 1.0 mM GTP and 1 mM MgCl2 (pH 6.9) at a tubulin concentration of 1 mg/ml in the presence or absence of the cyclopentenone derivatives. The final concentration of the cyclopentenone derivatives in the reaction mixture varied from 1–5 uM. The derivatives were dissolved in 0.1% DMSO. The control experiments were carried out with 0.1% DMSO. The tubulin polymerization was followed by measurement of the absorbance of the solution at 340 nm every 30 seconds. […] Thus the cyclopentenone derivatives mediated their observed anticancer activities by tubulin depolymerization.

PTC tumor xenografts = assay: In vivo anti-tumor activity on PTC (colon) xenografted mice; parameters: species or system Balb/c athymic mice; settings: PTC xenograft, intravenously 0.5 mg/100 μL once a day for 14 days
Method: PTC tumor xenografts were grown in Balb/c athymic mice by subcutaneous inoculation of a single cell suspension of PTC cells (15×10^6 cells/100 μL). The tumor bearing animals were divided into 2 groups of three animals each including one group comprising untreated control animals. Treatment with compound of formula no. 49 was initiated when the average tumor volumes, as measured using a vernier caliper, were […]. Compound of formula no. 49 was administered intravenously to the assigned group of tumor bearing animals at a dose of 0.5 mg/100 μL once a day and the treatment was continued for a period of 14 days.
The antitumor activity of the compound was monitored by measuring tumor volumes every fourth day using the formula W*W*L*0.4 (W=smaller diameter, L=larger diameter). The percentage inhibition of tumor growth was calculated using the formula (1-tumor volume-treated/tumor volume-control)*100. […] Compound of formula no. […] The percentage inhibition of tumor growth caused compound of formula no. 49 as compared to controls on day 23 was 45.8%.

Compound | Percent Reduction in VEGF (VEGF) [%] | IC50 (Tubulin) [nM] | other results
COc1ccc(C2=C(c3cc(OC)c(OC)c(OC)c3)C(=NO)CC2OC(C)=O)cc1 (stereo not shown) [Compound 20] | 2.0 ± 0.1 |  | Percent Induction of Caspase-3, 6 hours (Caspase-3; 6 hours): 13.6 ± 2.4%; Percent Induction of Caspase-3, 16 hours (Caspase-3; 16 hours): 20.7 ± 3.1%
COc1ccc(C2=C(c3cc(OC)c(OC)c(OC)c3)C(=O)CC2O)cc1O (stereo not shown) [Compound 39] |  | 1400 ± 600 | 
COc1ccc(C2=C(c3cc(OC)c(OC)c(OC)c3)C(=O)C(O)C2)cc1 (stereo not shown) [Compound 48] |  | 2100 ± 100 | 
COc1ccc(C2=C(c3cc(OC)c(OC)c(OC)c3)C(=NO)C(O)C2)cc1 (stereo not shown) [Compound 49] | 28.6 ± 1.9 | 2300 ± 500 | antitumor activity on PTC xenografts (in words) (PTC tumor xenografts): significant antitumor activity
COc1ccc(C2=C(c3cc(OC)c(OC)c(OC)c3)/C(=N\O)C(O)C2)cc1F (stereo not shown) [Compound 66] |  | 2000 ± 600 | 
COc1ccc(C2=C(c3cc(OC)c(OC)c(OC)c3)C(=O)C(O)C2)cc1O (stereo not shown) [Compound 74] |  | 1800 ± 500 | 
